In US20100209486A1, “Method of enhancing CoenzymeQ10 levels in mammals” (priority 2009, published 2010):
“And” between values parts separate entries of the source, which are not always exact repeats. Equal entries are not always repeated. Marks after values point to notes of the source that are not given here.

How the values were obtained:
[1] = test system: isolated guinea pig hearts; assay: Recovery of post-ischemic cardiac function (HR, CF, AF, LVDP) in isolated working guinea pig hearts; format: in vivo; settings: 5 mg/kg/day oral for 4 weeks; for aortic flow (AF), After 60 min of RE / coronary flow (CF), After 60 min of RE / heart rate (HR), After 60 min of RE / left ventricular developed pressure (LVDP), After 60 min of RE / aortic flow (AF), After 120 min of RE / heart rate (HR), After 120 min of RE / coronary flow (CF), After 120 min of RE / left ventricular developed pressure (LVDP), After 120 min of RE: 30 min ischemia; for aortic flow (AF), After 60 min of RE / coronary flow (CF), After 60 min of RE / heart rate (HR), After 60 min of RE / left ventricular developed pressure (LVDP), After 60 min of RE: 60 min reperfusion; for aortic flow (AF), After 120 min of RE / heart rate (HR), After 120 min of RE / coronary flow (CF), After 120 min of RE / left ventricular developed pressure (LVDP), After 120 min of RE: 120 min reperfusion; for aortic flow (AF), Before ISA / coronary flow (CF), Before ISA / heart rate (HR), Before ISA / left ventricular developed pressure (LVDP), Before ISA: isolated heart before ischemia
Experimental: Experimental studies were designed to determine if CoQ9 could protect guinea pig hearts from ischemia reperfusion injury. Myocardial ischemia reperfusion injury model is the most widely accepted experimental method for assessment of parameters related to cardio-protection. Guinea pigs were randomly divided into three groups: Group II and Group III were supplemented with 5 mg/kg bodyweight of CoQ9 and CoQ10, respectively, for 4 weeks while Group I served as control (C). After 4 weeks, the guinea pigs were sacrificed and the isolated hearts were perfused via working mode. The isolated hearts were subjected to ischemia for 30 min followed by 2 hours of reperfusion. Cardioprotection was assessed by evaluating left ventricular function, ventricular arrhythmias, myocardial infarct size and cardiomyocyte apoptosis.
Similar types of post-ischemic recovery of HR, CF, and LVDP were registered (Table 1) in isolated hearts obtained from guinea pigs treated with 5 mg/kg/day of CoQ10 or CoQ9 for 4 weeks. The improvement in post-ischemic cardiac function (HR, CF, AF, and LVDP) was more pronounced in the CoQ9 treated group than in the CoQ10 treated group.
Protective effect of CoQ9 and CoQ10 against from Ventricular Fibrillation (VF): Healthy Male Hartley guinea pigs of about 350-400 gm body weight were randomly divided into three groups, Control, CoQ9 and CoQ10. The guinea pigs were given orally 5 mg/kg body weight [in 0.5 ml water] of vehicle only, CoQ9 or CoQ10 respectively by gavage once a day. […] Treatment was continued for 30 days, the animals had free access to food and water. After 30 days, all animals were anesthetized, heparinized and sacrificed. The hearts excised, and isolated for perfusion via Langendorff mode for 5 min of washout period of the Langendorff heart perfusion, the pulmonary vein was cannulated, and the heart was switched to the “working” mode via perfusion of the left atria (at a filling pressure of 17 cm of the buffer, 1.7 kPa) as it was described in detail elsewhere. Global ischemia was imposed by clamping the atrial and aortic cannulas. Epicardial ECG was recorded through out the experiment, by attaching two silver electrodes directly to the myocardium and data collected using a data acquisition system (ADInstruments, Powerlab, Castle Hill, Australia). ECGs were analyzed to determine ventricular fibrillation (VF) and ventricular tachycardia (VT). The first 10 min of reperfusion was done in Langendorf (‘nonworking’) mode in order to avoid the development of reperfusion-induced VT and VF during the ‘working’ heart reperfusion. After the initial 2 min of VT or/and VF (sustained VF) in Langendorff reperfusion, hearts were defibrillated (if it was necessary), reperfused for an additional 8 min in Langendorff mode, and switched to ‘working heart’ reperfusion, and myocardial function was recorded. The heart was considered to be in VF if an irregular undulating baseline was apparent on the ECG. The data of VT, VF and sinus rhythm show their durations (in seconds) within the first 120 s of nonworking Langendorff reperfusion. The incidences of reperfusion-induced ventricular fibrillation (VF) for CoQ9 and CoQ10 are depicted in FIG. 1. […] Incidence of VF was reduced from 92% (control group) to 25% (*p<0.05) and 8% (*p<0.05) with 5 mg/kg/day of CoQ10 and CoQ9, respectively.
CoQ9 and CoQ10 treatment improves post-ischemic cardiac function (HR, CF, AF, and LVDP): Animal preparation, drug pretreatment and isolated working heart preparation were done as described in example 1. The isolated hearts obtained from group II and Group III guinea pigs treated with 5 mg/kg/day of […], for 4 weeks were subjected to 30 min ischemia followed by 120 min of reperfusion. […]

[2] = test system: isolated guinea pig hearts; assay: Reperfusion-induced ventricular fibrillation in isolated ischemic/reperfused hearts from orally treated guinea pigs; format: in vivo; settings: 5 mg/kg/day oral for 4 weeks; 30 min global ischemia then reperfusion; drug-free control 92%
Experimental: FIG. 1. The incidence of reperfusion-induced ventricular fibrillation (VF). Guinea pigs were orally treated with a daily dose of 5 mg/kg of CoQ10 or CoQ9 or vehicle control for 4 weeks, and then hearts were excised, and isolated for perfusion via Langendorff mode and subjected to 30 min of global ischemia followed by 120 min of reperfusion. N=12 in each group, *p<0.05 compared to the drug-free control (C) group.
Experimental studies were designed to determine if CoQ9 could protect guinea pig hearts from ischemia reperfusion injury. Myocardial ischemia reperfusion injury model is the most widely accepted experimental method for assessment of parameters related to cardio-protection. […] Cardioprotection was assessed by evaluating left ventricular function, ventricular arrhythmias, myocardial infarct size and cardiomyocyte apoptosis.
Protective effect of CoQ9 and CoQ10 against from Ventricular Fibrillation (VF): Healthy Male Hartley guinea pigs of about 350-400 gm body weight were randomly divided into three groups, Control, CoQ9 and CoQ10. […] Epicardial ECG was recorded through out the experiment, by attaching two silver electrodes directly to the myocardium and data collected using a data acquisition system (ADInstruments, Powerlab, Castle Hill, Australia). ECGs were analyzed to determine ventricular fibrillation (VF) and ventricular tachycardia (VT). […]

| Compound | aortic flow (AF), After 60 min of RE [1] | coronary flow (CF), After 60 min of RE [1] | heart rate (HR), After 60 min of RE [1] | left ventricular developed pressure (LVDP), After 60 min of RE [1] | aortic flow (AF), After 120 min of RE [1] | heart rate (HR), After 120 min of RE [1] [beats/min] | aortic flow (AF), Before ISA [1] [mL/min] | heart rate (HR), Before ISA [1] [beats/min] | left ventricular developed pressure (LVDP), Before ISA [1] [mm Hg] | incidence of reperfusion-induced ventricular fibrillation (VF) [2] [%] | further results |
| --- | --- | --- | --- | --- | --- | --- | --- | --- | --- | --- | --- |
| COC1=C(OC)C(=O)C(C/C=C(\C)CC/C=C(\C)CC/C=C(\C)CC/C=C(\C)CC/C=C(\C)CC/C=C(\C)CC/C=C(\C)CC/C=C(\C)CCC=C(C)C)=C(C)C1=O [CoQ9, Coenzyme Q9] | 27 ± 1* ml/min | 22 ± 2* ml/min | 240 ± 4* beats/min | 80 ± 2* mm Hg | 26.0 ± 1.0 mL/min | 233±4 | 35 ± 2 | 248 ± 5 | 106 ± 4 | 8 | aortic flow (AF), After 120 min of RE ([1]; listed as CoQ 9): 26 ± 1 mL/min; coronary flow (CF), After 120 min of RE ([1]; listed as CoQ 9): 25 ± 2 mL/min; left ventricular developed pressure (LVDP), After 120 min of RE ([1]; listed as CoQ 9): 75±2 mm Hg; aortic flow (AF), After 120 min of RE ([1]; listed as Q9): 26 ± 1* ml/min; coronary flow (CF), After 120 min of RE ([1]; listed as Q9): 25 ± 2* ml/min; heart rate (HR), After 120 min of RE ([1]; listed as Q9): 233 ± 4* beats/min; left ventricular developed pressure (LVDP), After 120 min of RE ([1]; listed as Q9): 75 ± 2* mm Hg; coronary flow (CF), Before ISA [1]: 23 ± 2 mL/min; coronary flow (CF), Before ISA ([1]; listed as Q9): 23 ± 2 mL/min |
| COC1=C(OC)C(=O)C(C/C=C(\C)CC/C=C(\C)CC/C=C(\C)CC/C=C(\C)CC/C=C(\C)CC/C=C(\C)CC/C=C(\C)CC/C=C(\C)CC/C=C(\C)CCC=C(C)C)=C(C)C1=O [CoQ10, Coenzyme Q10, reference compound] | 20 ± 2* ml/min | 20 ± 1* ml/min | 228 ± 3* beats/min | 71 ± 3* mm Hg | 18.0 ± 2.0 mL/min and 18 ± 2 mL/min | 217±3 | 34 ± 2 | 261 ± 6 | 100 ± 5 | 25 | coronary flow (CF), After 120 min of RE [1]: 19 ± 1 mL/min; left ventricular developed pressure (LVDP), After 120 min of RE [1]: 64±3 mm Hg; aortic flow (AF), After 120 min of RE ([1]; listed as Q10): 18 ± 2* ml/min; coronary flow (CF), After 120 min of RE ([1]; listed as Q10): 19 ± 1* ml/min; heart rate (HR), After 120 min of RE ([1]; listed as Q10): 217 ± 3* beats/min; left ventricular developed pressure (LVDP), After 120 min of RE ([1]; listed as Q10): 64 ± 3* mm Hg; coronary flow (CF), Before ISA ([1]; listed as CoQ 10): 25 ± 2 mL/min; coronary flow (CF), Before ISA ([1]; listed as Q10): 25 ± 2 mL/min |
